Measured values as given in patent publication US20020147217A1, “The treatment of sexual dysfunction with enantiomers” (R.T. Alamo Ventures I, L.L.C., priority 2001, published 2002).
Where a name gives a salt, the structure may show the parent alone. Read-outs that look alike come from different tables or passages of the source.

Experiments:
[1] = target: T1, PDE5 partially purified from human platelets (Homo sapiens, UniProt O76074); experiment: PDE5 enzyme inhibition assay (Example 3); type: biochemical; details: for % Inhibition of PDE5: 100 μM
T1 construct: PDE5 partially purified from human platelets was used; from tissue; host or cells: human platelets
Method: (§1) In this example, a racemic mixture of flosequinan and the (+) and (−) enantiomers of flosequinan were subjected to biochemical enzyme assays to determine their respective percent inhibition of a variety of phosphodiesterases (PDE1-PDE6). The reaction conditions for each PDE assay were as follows.
PDE5: PDE5 partially purified from human platelets was used. A racemic mixture of flosequinan, and each enantiomer of flosequinan, all at a molar concentration of 100 μM, were independently incubated with 120 μg PDE5 enzyme and 1 μM cGMP containing 0.01 μM [^3H]cGMP in Tris buffer pH 7.5 for 20 minutes at 30° C. The reaction was terminated by boiling for 2 minutes, and the resulting GMP was converted to guanosine by addition of 10 mg/ml snake venom nucleotidase and further incubation at 30° C. for 10 minutes. Unhydrolyzed cGMP was bound to AGI-X2 resin, and the remaining [^3H]guanosine in the aqueous phase was quantitated by scintillation counting.

[2] = test system: PDE4 partially purified from human U-937 pronocytic cells; experiment: PDE4 enzyme inhibition assay (Example 3); type: biochemical; details: 100 μM
Method: as §1
(§2) PDE4: PDE4 partially purified from human U-937 pronocytic cells was used. A racemic mixture of flosequinan, and each enantiomer of flosequinan, all at a molar concentration of 100 μM, were independently incubated with 20 μg PDE4 enzyme and 1 μM cAMP containing 0.01 μM [^3H]cAMP in Tris buffer pH 7.5 for 20 minutes at 30° C. The reaction was terminated by boiling for 2 minutes, and the resulting AMP was converted to adenosine by addition of 10 mg/ml snake venom nucleotidase and further incubation at 30° C. for 10 minutes. Unhydrolyzed cAMP was bound to AGI-X2 resin, and the remaining [^3H]adenosine in the aqueous phase was quantitated by scintillation counting.

[3] = target: T2, PDE2 partially purified from human platelets (Homo sapiens, UniProt O00408); experiment: PDE2 enzyme inhibition assay (Example 3); type: biochemical; details: for % Inhibition of PDE2: 100 μM
T2 construct: PDE2 partially purified from human platelets was used; from tissue; host or cells: human platelets
T2 sequence (O00408 whole entry): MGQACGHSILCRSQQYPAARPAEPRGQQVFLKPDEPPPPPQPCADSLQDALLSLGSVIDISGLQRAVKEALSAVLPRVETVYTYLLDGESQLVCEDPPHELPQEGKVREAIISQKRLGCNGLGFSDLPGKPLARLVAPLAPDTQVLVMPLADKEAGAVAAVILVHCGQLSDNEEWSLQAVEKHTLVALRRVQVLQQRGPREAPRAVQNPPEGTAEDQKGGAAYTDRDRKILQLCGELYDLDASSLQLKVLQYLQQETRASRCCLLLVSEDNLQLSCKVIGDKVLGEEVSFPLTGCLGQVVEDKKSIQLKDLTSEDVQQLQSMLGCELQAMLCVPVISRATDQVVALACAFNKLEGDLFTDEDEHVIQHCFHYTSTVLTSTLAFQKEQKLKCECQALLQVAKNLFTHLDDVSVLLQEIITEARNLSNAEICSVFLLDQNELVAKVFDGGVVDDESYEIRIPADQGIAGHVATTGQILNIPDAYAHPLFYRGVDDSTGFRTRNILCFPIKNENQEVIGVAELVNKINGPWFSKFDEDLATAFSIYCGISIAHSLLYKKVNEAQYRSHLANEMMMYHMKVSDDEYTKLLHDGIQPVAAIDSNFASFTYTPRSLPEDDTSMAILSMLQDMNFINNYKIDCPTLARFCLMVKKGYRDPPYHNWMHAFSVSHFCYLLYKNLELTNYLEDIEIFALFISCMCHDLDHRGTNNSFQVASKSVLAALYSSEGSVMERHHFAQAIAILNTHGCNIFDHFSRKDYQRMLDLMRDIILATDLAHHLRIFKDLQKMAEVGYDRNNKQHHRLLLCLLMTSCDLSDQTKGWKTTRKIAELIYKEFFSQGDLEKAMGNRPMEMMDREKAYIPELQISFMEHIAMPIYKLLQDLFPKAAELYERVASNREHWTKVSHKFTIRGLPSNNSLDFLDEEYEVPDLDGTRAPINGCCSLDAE
Method: as §1
as §2, with “PDE2: PDE2 partially” for “PDE4: PDE4 partially”, “human platelets” for “human U-937 pronocytic cells”, “with 23” for “with 20”, “μg PDE2 enzyme, 25” for “μg PDE4 enzyme and 1”, “containing 0.05” for “containing 0.01”

[4] = target: T3, PDE6 partially purified from bovine retinal rod (Bos taurus, UniProt P11541+P23439); experiment: PDE6 inhibition assay, Viagra versus racemic flosequinan (Example 1); type: biochemical
T3 construct: from tissue; host or cells: bovine retinal rod
T3 sequence (P11541 2-856 limits assumed): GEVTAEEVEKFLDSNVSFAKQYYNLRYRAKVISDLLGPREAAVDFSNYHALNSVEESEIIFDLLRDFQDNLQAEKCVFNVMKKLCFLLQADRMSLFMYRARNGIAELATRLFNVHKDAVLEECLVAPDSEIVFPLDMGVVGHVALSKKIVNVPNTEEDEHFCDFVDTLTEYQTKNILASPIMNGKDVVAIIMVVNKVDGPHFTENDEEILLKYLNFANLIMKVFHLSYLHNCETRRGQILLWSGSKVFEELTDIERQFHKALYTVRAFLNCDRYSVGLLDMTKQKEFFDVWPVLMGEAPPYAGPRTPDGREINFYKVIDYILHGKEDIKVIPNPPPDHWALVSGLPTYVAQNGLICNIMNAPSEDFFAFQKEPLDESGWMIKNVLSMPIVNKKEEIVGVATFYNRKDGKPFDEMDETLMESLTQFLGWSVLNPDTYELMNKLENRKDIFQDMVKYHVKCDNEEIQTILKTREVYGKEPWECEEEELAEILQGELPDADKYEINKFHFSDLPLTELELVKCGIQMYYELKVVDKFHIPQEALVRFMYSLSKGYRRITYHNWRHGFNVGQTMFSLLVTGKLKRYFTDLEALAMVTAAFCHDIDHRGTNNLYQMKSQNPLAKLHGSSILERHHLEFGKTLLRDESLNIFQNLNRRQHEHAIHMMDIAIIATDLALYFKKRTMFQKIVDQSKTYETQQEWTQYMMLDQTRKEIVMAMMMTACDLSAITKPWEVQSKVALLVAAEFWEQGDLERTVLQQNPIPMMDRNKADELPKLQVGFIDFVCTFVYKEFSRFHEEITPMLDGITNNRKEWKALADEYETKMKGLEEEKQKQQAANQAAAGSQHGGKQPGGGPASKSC
T3 sequence (P23439 2-850 limits assumed): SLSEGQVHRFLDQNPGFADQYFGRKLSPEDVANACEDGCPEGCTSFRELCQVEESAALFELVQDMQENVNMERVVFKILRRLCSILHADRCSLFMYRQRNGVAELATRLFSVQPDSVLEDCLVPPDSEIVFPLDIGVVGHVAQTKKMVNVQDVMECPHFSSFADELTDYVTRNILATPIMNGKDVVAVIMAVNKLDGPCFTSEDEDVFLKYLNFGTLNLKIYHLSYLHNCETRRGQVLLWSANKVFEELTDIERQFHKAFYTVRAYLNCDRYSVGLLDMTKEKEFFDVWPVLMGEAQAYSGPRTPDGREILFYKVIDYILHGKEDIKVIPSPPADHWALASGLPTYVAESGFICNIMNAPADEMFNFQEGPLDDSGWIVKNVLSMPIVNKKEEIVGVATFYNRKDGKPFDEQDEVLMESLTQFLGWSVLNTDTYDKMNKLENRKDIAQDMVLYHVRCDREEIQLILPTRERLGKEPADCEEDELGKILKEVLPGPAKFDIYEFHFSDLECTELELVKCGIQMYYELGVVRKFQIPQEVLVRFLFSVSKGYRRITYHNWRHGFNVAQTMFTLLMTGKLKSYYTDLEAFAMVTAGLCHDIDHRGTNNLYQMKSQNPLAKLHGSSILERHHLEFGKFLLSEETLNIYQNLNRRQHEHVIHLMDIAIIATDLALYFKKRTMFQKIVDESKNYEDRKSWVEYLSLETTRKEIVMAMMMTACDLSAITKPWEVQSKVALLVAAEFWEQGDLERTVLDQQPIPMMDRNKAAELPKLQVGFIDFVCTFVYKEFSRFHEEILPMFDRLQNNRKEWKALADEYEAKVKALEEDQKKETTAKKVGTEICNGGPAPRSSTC
Method: PDE6 partially purified from bovine retinal rod and activated by trypsin was used. In four separate reactions, Viagra at molar concentrations of 0.3 μM, 1.0 μM, and 3.0 μM, and a 100 μM racemic mixture of flosequinan were incubated with 0.2 μg/ml active PDE6 and 100 μM cGMP containing 0.1 μM [^3H]cGMP in Tris buffer pH 7.5 for 20 minutes at 30° C. Each reaction was terminated by raising the temperature to 100° C. for 2 minutes. The resulting GMP was converted to guanosine by addition of 10 mg/ml snake venom nucleotidase and further incubated at 30° C. for 10 minutes. Unhydrolyzed cGMP was bound to AGI-X2 resin, and [^3H]guanosine remaining in the aqueous phase was quantitated by scintillation counting.

[5] = target: T4, PDE1 partially purified from bovine heart (Bos taurus, UniProt P14100); experiment: PDE1 enzyme inhibition assay (Example 3); type: biochemical
T4 construct: PDE1 partially purified from bovine heart was used; from tissue; host or cells: bovine heart
T4 sequence (P14100 1-514 isoform P14100-2): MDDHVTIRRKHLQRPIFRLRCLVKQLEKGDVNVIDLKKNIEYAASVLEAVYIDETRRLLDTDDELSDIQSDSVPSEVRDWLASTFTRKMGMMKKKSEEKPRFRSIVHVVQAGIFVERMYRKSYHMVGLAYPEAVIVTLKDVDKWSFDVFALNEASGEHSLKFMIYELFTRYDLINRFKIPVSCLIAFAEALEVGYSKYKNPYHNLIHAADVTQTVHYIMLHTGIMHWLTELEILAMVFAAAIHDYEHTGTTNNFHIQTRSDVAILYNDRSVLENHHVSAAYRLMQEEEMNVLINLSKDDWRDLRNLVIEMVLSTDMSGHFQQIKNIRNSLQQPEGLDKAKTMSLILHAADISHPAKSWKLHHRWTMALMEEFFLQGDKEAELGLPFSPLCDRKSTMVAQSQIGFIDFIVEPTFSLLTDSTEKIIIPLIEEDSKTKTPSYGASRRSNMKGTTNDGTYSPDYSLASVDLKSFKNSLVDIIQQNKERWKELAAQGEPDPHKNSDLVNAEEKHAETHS
Method: as §1
as §2, with “PDE1: PDE1 partially” for “PDE4: PDE4 partially”, “from bovine heart” for “from human U-937 pronocytic cells”, “with 13” for “with 20”, “μg PDE1 enzyme, 1.0” for “μg PDE4 enzyme and 1 μM cAMP containing 0.01”, “[^3H]cAMP and CaCl2/calmodulin” for “[^3H]cAMP”

[6] = target: T3, PDE6 partially purified from bovine retinal rod; experiment: PDE6 enzyme inhibition assay (Example 3); type: biochemical; details: for % Inhibition of PDE6: 100 μM
Method: as §1
PDE6: PDE6 partially purified from bovine retinal rod and activated by trypsin was used. A racemic mixture of flosequinan, and each enantiomer of flosequinan, all at a molar concentration of 100 μM, were independently incubated with 0.2 μg/ml active PDE6 and 100 μM cGMP containing 0.1 μM [^3H]cGMP in Tris buffer pH 7.5 for 20 minutes at 30° C. Each reaction was terminated by boiling for 2 minutes. The resulting GMP was converted to guanosine by addition of 10 mg/ml snake venom nucleotidase, and further incubated at 30° C. for 10 minutes. Unhydrolyzed cGMP was bound to AGI-X2 resin, and [^3H]guanosine remaining in the aqueous phase was quantitated by scintillation counting.

[7] = target: T5, PDE3 partially purified from human platelets (Homo sapiens, UniProt Q14432); experiment: PDE3 enzyme inhibition assay (Example 3); type: biochemical
T5 construct: PDE3 partially purified from human platelets was used; from tissue; host or cells: human platelets
T5 sequence (Q14432 whole entry): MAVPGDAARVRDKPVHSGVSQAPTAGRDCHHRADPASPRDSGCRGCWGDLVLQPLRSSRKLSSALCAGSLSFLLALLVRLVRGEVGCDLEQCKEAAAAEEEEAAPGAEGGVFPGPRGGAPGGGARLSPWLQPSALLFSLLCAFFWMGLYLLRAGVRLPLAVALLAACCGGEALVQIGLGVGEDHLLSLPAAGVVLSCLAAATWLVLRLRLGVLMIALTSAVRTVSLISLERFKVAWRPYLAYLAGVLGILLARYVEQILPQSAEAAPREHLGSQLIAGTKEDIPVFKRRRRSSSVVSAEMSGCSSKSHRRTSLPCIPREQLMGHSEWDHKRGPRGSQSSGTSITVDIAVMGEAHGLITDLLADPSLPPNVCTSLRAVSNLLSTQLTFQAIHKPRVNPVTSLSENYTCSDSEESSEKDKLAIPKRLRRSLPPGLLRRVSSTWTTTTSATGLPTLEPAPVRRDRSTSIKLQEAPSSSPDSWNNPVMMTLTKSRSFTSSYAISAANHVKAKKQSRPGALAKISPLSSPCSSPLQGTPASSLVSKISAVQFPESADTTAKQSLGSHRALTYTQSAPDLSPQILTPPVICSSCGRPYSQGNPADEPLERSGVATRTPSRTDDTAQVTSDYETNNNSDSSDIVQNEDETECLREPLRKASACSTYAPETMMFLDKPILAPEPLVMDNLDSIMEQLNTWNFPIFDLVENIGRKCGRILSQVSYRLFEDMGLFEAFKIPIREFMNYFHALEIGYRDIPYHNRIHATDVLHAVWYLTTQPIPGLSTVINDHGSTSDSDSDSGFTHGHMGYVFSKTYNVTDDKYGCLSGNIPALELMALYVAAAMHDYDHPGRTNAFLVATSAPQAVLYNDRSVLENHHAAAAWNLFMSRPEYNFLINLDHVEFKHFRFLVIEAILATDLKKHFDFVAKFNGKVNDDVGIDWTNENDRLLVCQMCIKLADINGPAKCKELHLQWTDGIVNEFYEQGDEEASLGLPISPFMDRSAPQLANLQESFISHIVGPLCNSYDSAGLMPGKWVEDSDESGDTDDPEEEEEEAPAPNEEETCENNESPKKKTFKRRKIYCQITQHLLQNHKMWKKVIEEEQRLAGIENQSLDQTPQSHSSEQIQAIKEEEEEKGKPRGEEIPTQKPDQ
Method: as §1
as §2, with “PDE3: PDE3 partially” for “PDE4: PDE4 partially”, “human platelets” for “human U-937 pronocytic cells”, “with 13” for “with 20”, “μg PDE3” for “μg PDE4”

[8] = in vivo, po
[9] = Plasma levels following oral administration

Compound: Cn1cc([S+](C)[O-])c(=O)c2ccc(F)cc21 (racemic) [Flosequinan, 7-fluoro-1-methyl-3-(methylsulphinyl)-4(1H)-quinolone, reference compound]
- inhibition at 100 µM [1]: 11%
- % Inhibition of PDE4 [2]: 24%
- inhibition at 100 µM [3]: 18%
- inhibition at 100 µM ([4]; 100 μM compound): 36%
- IC50 ([4]; read-out: Concentration required for around 50% inhibition of PDE6): > 100 µM
- Times more compound on a molar basis than Viagra needed for around 50% PDE6 inhibition ([4]; versus Viagra 0.3 μM): more than 300 times
- inhibition at 100 µM [5]: 31%
- inhibition at 100 µM [6]: 21%
- inhibition at 100 µM ([7]; 100 μM): 26%

Compound: Cn1cc([S+](C)[O-])c(=O)c2ccc(F)cc21 (single isomer, unassigned; (-)) [(−)-flosequinan]
- % Inhibition of PDE5 [1]: 10%
- % Inhibition of PDE4 [2]: 1%
- % Inhibition of PDE2 [3]: 13%
- % Inhibition of PDE1 ([5]; 100 μM): 11%
- % Inhibition of PDE6 [6]: 21%
- % Inhibition of PDE3 ([7]; 100 μM): 5%

Compound: Cn1cc([S@@+](C)[O-])c(=O)c2ccc(F)cc21 [(+)-flosequinan]
- % Inhibition of PDE5 [1]: 17%
- % Inhibition of PDE4 [2]: 6%
- % Inhibition of PDE2 [3]: 18%
- % Inhibition of PDE1 ([5]; 100 μM): 28%
- PDE1 inhibitory activity compared with the (−) enantiomer ([5]; 100 μM): more PDE1 and PDE3 inhibitory activity
- % Inhibition of PDE6 [6]: 22%
- Time of peak plasma concentration [8]: 1 to 2 h
- % Inhibition of PDE3 ([7]; 100 μM): 32%
- PDE3 inhibitory activity compared with the (−) enantiomer ([7]; 100 μM): more PDE1 and PDE3 inhibitory activity
- Increase in PDE3 inhibition compared to the (−) enantiomer ([7]; same molar concentration): eight-fold
- PDE3 inhibition compared with racemic mixture of flosequinan ([7]; same molar concentration): greater inhibition of PDE3 than a racemic mixture of flosequinan

Compound: CCCc1nn(C)c2c(=O)[nH]c(-c3cc(S(=O)(=O)N4CCN(C)CC4)ccc3OCC)nc12 [Viagra, Sildenafil citrate]
- inhibition at 0.3 µM ([4]; read-out: % Inhibition of PDE6, 0.3 μM compound): ~50%
- inhibition at 1 µM ([4]; read-out: % Inhibition of PDE6, 1.0 μM compound): 62%
- inhibition at 3 µM ([4]; read-out: % Inhibition of PDE6, 3.0 μM compound): 87%

Compound: CSc1cn(C)c2cc(F)ccc2c1=O [metabolite]
- Time of peak plasma concentration [9]: about seven
